System: candida cultures
Assay: Heat-treated AmB placed on candida cultures, cleared zone
Format: cell-based, Candida albicans
Conditions: heat-treated at various temperatures, examined after 24 h; n=2
Protocol: FIG. 4 illustrates Candida albicans biomass assay: The antifungal properties of 3D printed PCL-PMMA was examined in a biomass assay a. To assess antifungal effects, 3D printed 1, 5 and 10 layered sample were incubated with C. albicans for 48 h and dry weight of their biofilm biomass was assessed. n=3, *p<0.05, T test. b. Electron microscopy of 1 (left), 5 (middle) and 10 (right) layered AmB containing PCL microspheres incorporated PMMA disc. c. AmB was heat-treated at various temperatures and placed on candida cultures and examined after 24 h for efficacy (left panel). Digital images were captured and the cleared zone was quantitated (right panel) n=2, *p<0.05, T test.

C[C@@H]1[C@H](O)[C@@H](C)/C=C/C=C/C=C/C=C/C=C/C=C/C=C/[C@H](O[C@@H]2O[C@H](C)[C@@H](O)[C@H](N)[C@@H]2O)C[C@@H]2O[C@](O)(C[C@@H](O)C[C@@H](O)[C@H](O)CC[C@@H](O)C[C@@H](O)CC(=O)O[C@H]1C)C[C@H](O)[C@H]2C(=O)O [AmB, Amphotericin B]
anti-fungal effects after direct heat treatment: reduced anti-fungal effects

From US20220160488A1, “FUNCTIONALIZED PROSTHETIC INTERFACES FOR THE PREVENTION AND TREATMENT OF DENTAL CONDITIONS” (OPTIMED TECHNOLOGY, INC., priority 2019, published 2022)
